From patent US10712352B2, “Methods and devices for assessing in vivo toxic levels of bilirubin and diagnosing increased risk of bilirubin neurotoxicity” (NEOMETRIX DX, priority 2018, dated 2020)

Key:
human albumin = human albumin (Homo sapiens, UniProt P02768); assay: Bilirubin binding before and after adding sulfisoxazole to a bilirubin/human albumin sample
Text: The clinically relevant quantification of bilirubin binding are the mass action variables above (BTotal, BFree, BTotal_2, BFree_2, BTmax, and KA) constitute a Bilirubin Binding Panel (BBP). Optionally, BTmax and KA can be used to determine whether a newborn binds bilirubin normally.
Measuring Total and Unbound Bilirubin (BTotal and BFree): The peroxidase test (see, e.g., Jacobsen J, Wennberg R P. Determination of unbound bilirubin in the serum of newborns. Clin Chem 1974; 20:783-789) measures both BTotal and BFree. This test is used clinically in Japan. In alternative embodiments, novel modifications of methods as provided herein measure BFree at two horseradish peroxidase levels to accurately determine BFree and measure BTotal and BFree before and after bilirubin enrichment of a plasma or other blood sample to provide BTmax and KA to complete the Bilirubin Binding Panel (BBP) described herein. […] The peroxidase test is based on the horse radish peroxidase (HRP) catalyzed oxidation of bilirubin by peroxide. Bilirubin absorbs light maximally at 440 nm when no albumin is present and at 460 nm when bound to albumin. Bilirubin bound to albumin is protected from oxidation and only BFree is oxidized. The light absorbance at 440 nm (no albumin) or 460 nm (albumin present) decreases as bilirubin is oxidized, and the reaction rate constant, Kp, can be determined using known bilirubin and HRP concentrations in solutions without albumin present (i.e. all the bilirubin is unbound or “free”) as shown in the equivalent velocity equations below: […]
BTotal is calculated from the absorbance prior to adding HRP and H2O2 and BFree from the change in absorbance following addition of HRP/H2O2 as further described below. […]
BTotal is calculated by dividing the initial absorbance by the known extinction coefficient (0.827/cm light path length for BTotal in […]) and BFree is calculated from the change in absorbance at 460 nm after adding HRP/H2O2. […]

[1] = test system: plasma bilirubin binding sites (e.g. albumin); assay: Bilirubin binding panel (peroxidase test, before and after bilirubin enrichment) in plasma of 31 newborns <28 weeks gestation; parameters: species or system human
Text: [formula] can be readily solved by for BTmax and KA by measuring BTotal and BFree before and after enrichment of the sample with bilirubin to provide BTotal, BFree, and BTotal_2, BFree_2. These provide two equations with two unknowns (BTmax and KA), that can be solved for BTmax as shown below:
(§1) This test is used clinically in Japan.
(§2) BFree is obtained by measuring BFss at the additional HRP concentration and using […]

human defatted albumin = human defatted albumin (Homo sapiens, UniProt P02768); assay: Bilirubin binding isotherm in artificial serum containing human defatted albumin (peroxidase test); details: albumin 3.0 g/dL
Procedure: FIG. 5 illustrates the change in BFree (black dots) as BTotal increases. The negative intercept of 1/BFree versus 1/BTotal, i.e. KA, is […] and the negative slope/intercept, i.e. BTmax, is 37.5 mg/dL. The BTmax and KA in Table 3 are calculated as described above using the lowest BTotal (8.3 mg/dL) and BFree (0.51 μg/dL) paired with each of the other five measures of BTotal and BFree. The mean BTmax and KA of all 15 possible pairings in TABLE 4 are 39.1 mg/dL and 0.56 dL/μg, respectively.
Non-linear regression analysis of the molar ratios versus the BFree from TABLE 3 were used to determine the best fit K1 (0.93 dL/μg) and K2 (0.04 dL/μg) using the stoichiometric equation
as §1, §2

human defatted albumin, sequence (P02768 25-609): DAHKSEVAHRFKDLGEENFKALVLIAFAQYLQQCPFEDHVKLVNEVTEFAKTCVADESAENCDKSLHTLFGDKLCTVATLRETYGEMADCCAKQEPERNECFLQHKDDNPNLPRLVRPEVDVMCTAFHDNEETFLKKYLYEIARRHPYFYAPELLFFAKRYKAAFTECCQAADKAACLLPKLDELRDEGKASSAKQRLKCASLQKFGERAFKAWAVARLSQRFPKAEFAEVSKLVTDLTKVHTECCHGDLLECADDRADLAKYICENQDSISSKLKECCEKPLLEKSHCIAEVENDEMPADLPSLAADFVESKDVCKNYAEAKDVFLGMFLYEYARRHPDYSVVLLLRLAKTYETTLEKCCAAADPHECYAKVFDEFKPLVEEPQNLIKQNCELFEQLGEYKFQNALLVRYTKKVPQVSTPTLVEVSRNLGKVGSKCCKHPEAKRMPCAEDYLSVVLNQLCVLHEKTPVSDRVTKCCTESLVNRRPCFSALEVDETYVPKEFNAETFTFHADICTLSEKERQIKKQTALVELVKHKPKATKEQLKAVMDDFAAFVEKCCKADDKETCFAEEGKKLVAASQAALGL
human albumin, sequence (P02768 25-609): as above

Row | Structure (SMILES) | KA (human albumin; 3.0 g/dL albumin, without or with sulfa) | effect of adding sulfisoxazole on bilirubin BFree (human albumin; bilirubin/human albumin sample, 3.0 g/dL albumin) | BFree_2 (free bilirubin after bilirubin enrichment) ([1]; 25th-75th percentile, after enrichment) | BFree_2 (free bilirubin after bilirubin enrichment) ([1]; mean, after enrichment (mean BTotal_2 13.8 mg/dL)) | BFree_2 (free bilirubin after bilirubin enrichment) ([1]; median, after enrichment (median BTotal_2 13.7 mg/dL)) | BFree_2 (free bilirubin after bilirubin enrichment) ([1]; range, after enrichment (BTotal_2 6.3-23.0 mg/dL)) | BFree (human defatted albumin; BTotal 8.3 mg/dL (BTotal/ATotal molar ratio 0.31)) | BFree (human defatted albumin; BTotal 11.7 mg/dL (molar ratio 0.44)) | BFree (human defatted albumin; BTotal 18.5 mg/dL (molar ratio 0.69)) | BFree (human defatted albumin; BTotal 22.2 mg/dL (molar ratio 0.83)) | BFree (human defatted albumin; BTotal 28.3 mg/dL (molar ratio 1.06)) | BFree (human defatted albumin; BTotal 31.3 mg/dL (molar ratio 1.18)) | BFree (human albumin; human, 8.3 mg/dL, pH 7.4)
1 | Cc1noc(NS(=O)(=O)c2ccc(N)cc2)c1C [+ sulfa, sulfisoxazole] | 0.20 dL/µg | about doubles the BFree | – | – | – | – | – | – | – | – | – | – | –
2 | C=CC1=C(C)/C(=C/c2[nH]c(Cc3[nH]c(/C=C4\NC(=O)C(C)=C4C=C)c(C)c3CCC(=O)O)c(CCC(=O)O)c2C)NC1=O [bilirubin] | – | – | 1.1 to 3.3 µg/dL | 2.51 µg/dL | 1.93 µg/dL | 0.42 to 10.61 µg/dL | 0.51 µg/dL | 0.92 µg/dL | 1.70 µg/dL | 2.39 µg/dL | 6.05 µg/dL | 9.88 µg/dL | 0.51 µg/dL
